Results: ChEMBL document CHEMBL1201862, “PubChem BioAssay data set” (2004)
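Grown in 96-well plates, cells were treated for 48 hours with each compound at five concentrations. Insufficient inhibition: endpoint recorded as highest concentration tested. The concentration for 50% growth inhibition is given as GI50.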 Active and inactive are the calls of the source. Rule as the data show it: active = GI50 up to about 1.1 µM and inactive = higher.

How the values were obtained:
Test in all cases: NCI anticancer screen, dose series, 48 h
OVCAR-3 = test system: OVCAR-3
IGROV-1 = test system: IGROV-1
COLO 205 = test system: COLO 205
NCI/ADR-RES = test system: NCI/ADR-RES
NCI-H522 = test system: NCI-H522
SNB-75 = test system: SNB-75
SK-MEL-28 = test system: SK-MEL-28
MDA-N = test system: MDA-N
SNB-19 = test system: SNB-19
DU-145 = test system: DU-145
OVCAR-5 = test system: OVCAR-5
CCRF-CEM = test system: CCRF-CEM
KM12 = test system: KM12
CAKI-1 = test system: CAKI-1
NCI-H226 = test system: NCI-H226
SF-539 = test system: SF-539
LOX IMVI = test system: LOX IMVI
HCT-116 = test system: HCT-116
MOLT-4 = test system: MOLT-4

Row | Compound | GI50 (OVCAR-3) | GI50 (IGROV-1) | GI50 (COLO 205) | GI50 (NCI/ADR-RES) | GI50 (NCI-H522) | GI50 (SNB-75) | GI50 (SK-MEL-28) | GI50 (MDA-N) | GI50 (SNB-19) | GI50 (DU-145) | GI50 (OVCAR-5) | GI50 (CCRF-CEM) | GI50 (KM12) | GI50 (CAKI-1) | GI50 (NCI-H226) | GI50 (SF-539) | GI50 (LOX IMVI) | GI50 (HCT-116) | GI50 (MOLT-4)
1 | COc1ccc(-c2cc3c(nn2)-c2ccccc2C3=O)cc1 | > 10 µM (inactive) | > 10 µM (inactive) | > 10 µM (inactive) | > 10 µM (inactive) | > 10 µM (inactive) | 0.845 µM (active) | > 10 µM (inactive) | > 10 µM (inactive) | > 10 µM (inactive) | > 10 µM (inactive) | > 10 µM (inactive) | 6.38 µM (inactive) | > 10 µM (inactive) | > 10 µM (inactive) | > 10 µM (inactive) | > 10 µM (inactive) | > 10 µM (inactive) | 7.71 µM (inactive) | –
2 | CN1CCN(CC(=O)Nc2cccc3ccccc23)CC1 | > 100 µM (inactive) | > 100 µM (inactive) | > 100 µM (inactive) | > 100 µM (inactive) | > 100 µM (inactive) | – | > 100 µM (inactive) | > 100 µM (inactive) | > 100 µM (inactive) | > 100 µM (inactive) | > 100 µM (inactive) | > 100 µM (inactive) | > 100 µM (inactive) | > 100 µM (inactive) | > 100 µM (inactive) | > 100 µM (inactive) | > 100 µM (inactive) | > 100 µM (inactive) | > 100 µM (inactive)
3 | Cc1[nH]c2ccccc2c1-c1cc(-c2cc(-c3c(C)[nH]c4ccccc34)on2)no1 | 40.6 µM (inactive) | 56.8 µM (inactive) | 84.1 µM (inactive) | > 100 µM (inactive) | 34.3 µM (inactive) | 18.2 µM (inactive) | > 100 µM (inactive) | 21 µM (inactive) | > 100 µM (inactive) | > 100 µM (inactive) | > 100 µM (inactive) | 34.2 µM (inactive) | 42.6 µM (inactive) | 76.2 µM (inactive) | 98.4 µM (inactive) | 49 µM (inactive) | 55 µM (inactive) | 44.3 µM (inactive) | > 100 µM (inactive)
4 | Nc1nc(Cl)cc(NCC2(O)CC(CO)C2)n1 (centres undefined) | > 100 µM (inactive) | > 100 µM (inactive) | > 100 µM (inactive) | > 100 µM (inactive) | > 100 µM (inactive) | > 100 µM (inactive) | > 100 µM (inactive) | > 100 µM (inactive) | > 100 µM (inactive) | > 100 µM (inactive) | > 100 µM (inactive) | > 100 µM (inactive) | > 100 µM (inactive) | > 100 µM (inactive) | > 100 µM (inactive) | > 100 µM (inactive) | > 100 µM (inactive) | > 100 µM (inactive) | > 100 µM (inactive)
5 | CN(C)/C=N\c1cccc2cnccc12 | 43.2 µM (inactive) | > 100 µM (inactive) | > 100 µM (inactive) | > 100 µM (inactive) | > 100 µM (inactive) | 44.8 µM (inactive) | > 100 µM (inactive) | > 100 µM (inactive) | > 100 µM (inactive) | > 100 µM (inactive) | > 100 µM (inactive) | > 100 µM (inactive) | – | > 100 µM (inactive) | > 100 µM (inactive) | > 100 µM (inactive) | > 100 µM (inactive) | > 100 µM (inactive) | > 100 µM (inactive)
6 | CSc1[nH]cnc1C(N)=S | > 100 µM (inactive) | > 100 µM (inactive) | > 100 µM (inactive) | > 100 µM (inactive) | > 100 µM (inactive) | > 100 µM (inactive) | > 100 µM (inactive) | > 100 µM (inactive) | > 100 µM (inactive) | > 100 µM (inactive) | > 100 µM (inactive) | – | > 100 µM (inactive) | > 100 µM (inactive) | > 100 µM (inactive) | > 100 µM (inactive) | > 100 µM (inactive) | > 100 µM (inactive) | > 100 µM (inactive)
7 | CC1=C/C(=N\O)C(C(O)(C(F)(F)F)C(F)(F)F)C(C)(C)C1 (centres undefined) | > 10 µM (inactive) | > 10 µM (inactive) | > 10 µM (inactive) | > 10 µM (inactive) | > 10 µM (inactive) | 3.49 µM (inactive) | > 10 µM (inactive) | > 10 µM (inactive) | > 10 µM (inactive) | > 10 µM (inactive) | > 10 µM (inactive) | > 10 µM (inactive) | > 10 µM (inactive) | > 10 µM (inactive) | > 10 µM (inactive) | > 10 µM (inactive) | > 10 µM (inactive) | > 10 µM (inactive) | > 10 µM (inactive)
